Reference: patent US6699505B2, “Method of increasing the efficacy of antibiotics by compexing with cyclodextrins” (Massachusetts Institute of Technology, priority 2000, dated 2004)

Columns and labels:
[1] = tested on: P. gingivalis; assay: Zone of inhibition of PLGA chips in wells of seeded agar plates; format: cell-based; details: PLGA chips 4 mm×5 mm×0.5 mm in wells, anaerobic 37° C., measured daily
Source text: (§1) FIG. 1 is a graph charting the change in size of the zone of growth inhibition of the bacterium P. gingivalis over time. The antibiotic being tested (complexed or non-complexed) is applied to a specific point near or within an area of bacterial growth on an agar plate. The bioactive agent diffuses from the application point and causes lysis of already growing bacteria, or inhibition of growth of bacteria within the zone of diffusion. The diameter of bacterial lysis or growth inhibition is a measure of the potency of the bioactive agent. […] A relatively small zone of lysis or growth inhibition indicates a less biologically active agent.
(§2) Increased biological activity of the antibiotic chlorhexidine was tested by placing chips composed of chorhexidine (C) and clorhexidine digluconate (Cg) complexed with hydroxypropyl-β-cyclodextrin (H) or methylated β-cyclodextrin adjacent to a tooth in agar seeded with P. gingivalis or B. forsythus. The agar plates were incubated to allow growth of the bacterium for 12-15 days and the zone of inhibition of bacterial growth around each chip was measured. An increase in biological activity was measured by an increase in the size of the zone of inhibition around the chip containing the complexed antibiotic compared to the size of the zone around the chip containing the uncomplexed antibiotic.
(§3) More particularly, the method used the following steps:
(§4) Mix: 5 g Trypticase Soy Agar
(§5) 6.5 g Brain Heart Infusion
(§6) Autoclave mixture for 15 minutes at 121 degree Celsius.
(§7) Cool to 50 degrees Celsius for 1 hour.
(§8) Add: 12.5 mL defibrinated sheep blood.
(§9) 300 uL N-acetylmuramic acid (100x).
(§10) Prepared B. forsythus and P. gingivalis culture solution with an optical density of 1˜10^9 cells/mL.
(§11) Added 2 mL of bacteria culture into their respective agar solutions.
(§12) Pour 20 mL agar solution into 150 mm diameter petri dishes.
(§13) Place well former into petri dishes.
(§14) Allow agar to harden by cooling to room temperature for 1 hour.
(§15) Place petri dishes in anaerobic chamber at 37° C. in an atmosphere consisting of 80% nitrogen, 10% hydrogen, and 10% carbon dioxide for 2 days.
(§16) Place 4 mm×5 mm×0.5 mm PLGA chips composed of: Cg, C, C/H, Cg/M, M, and H into preformed wells.
(§17) Masses of each component based on 25 wt % of Cg with respect to a 10 mg chip.
(§18) Add MilliQ water into wells to keep chips hydrated.
(§19) Keep petri dishes in anaerobic chamber during entire experiment.
(§20) Measure zones of inhibition daily using electronic calipers from the center of the well.
(§21) Experiments done in triplicate.

[2] = tested on: B. forsythus; assay: as above; format: cell-based; details: for zone of inhibition of bacterial growth: PLGA chips 4 mm×5 mm×0.5 mm in wells, B. forsythus agar, anaerobic 37° C., measured daily
Source text: as §1, §2, §3, §4, §5, §6, §7, §8, §9, §10, §11, §12, §13, §14, §15, §16, §17, §18, §19, §20, §21

Structure (SMILES)	zone of inhibition of bacterial growth [1]	zone of inhibition ([2]; B. forsythus, FIG. 1 right panel)	zone of inhibition of bacterial growth [2]
[H]/N=C(\N/C(=N/[H])NCCCCCCNC(=N)NC(=N)Nc1ccc(Cl)cc1)Nc1ccc(Cl)cc1 [C, Chlorhexidine]	statistically similar	about 40 mm	statistically similar
N=C(NCCCCCCNC(=N)NC(=N)Nc1ccc(Cl)cc1)NC(=N)Nc1ccc(Cl)cc1.O=C(O)[C@H](O)[C@@H](O)[C@H](O)[C@H](O)CO.O=C(O)[C@H](O)[C@@H](O)[C@H](O)[C@H](O)CO [Cg, Chlorhexidine Digluconate]	statistically similar	–	statistically similar
